# From patent publication US9249184B2, “Cardiac-specific protein targeting domain” (University of Pittsburgh—of the Commonwealth System of …, priority 2010, dated 2016)
# Ends that are not written are not given here.
# Tests used:
# human heart tissue = assay: Ex vivo transduction of human explanted heart slices (confocal microscopy); settings: separate explanted heart; 500 ul of 1 mM solution; 30 mins at 37° C.
# Experimental: Human explanted hearts were obtained from the operating rooms of UPMC at the time of ongoing heart transplants. Heart tissue was dissected from the proximal part or the base of the heart to avoid the more scarred, infarcted, distal tissue. Small 1-2 mm thick slices of heart tissue were taken and incubated with CTP-6CF (500 ul of a 1 mM solution) or PBS, for 30 and 60 mins, at 37° C./5% CO2. At the end of the incubation period, the heart slices were washed in PBS 6 times, fixed in 2% paraformaldehyde for 4 hrs at room temperature, followed by 30% sucrose overnight at 4° C. Next day the tissue was frozen in liquid nitrogen-chilled isopentane and stored 58
# at −80° C., for later cryosectioning, cross-staining with DRAQ5 and confocal microscopy. Confocal micrographs were obtained avoiding the edges because of the necessary damage associated with dissecting the heart tissue pieces. Confocal micrographs were taken 3-4 cell layers away from any edges.
# To investigate if this transduction was indeed peptide specific, and not secondary to increased membrane leakiness resulting from tissue being ischemic, we incubated thin, 1-2 mm thick, heart slices, from a separate explanted heart, in only 6CF in PBS, CTP-6CF, RAN-6CF as well as 6CF labeled 6-Arginine, a known PTD. We also incubated heart slices with Evans blue dye (EBD) to assess for membrane leakiness. […]
# [1] = in vitro phage display; cited from earlier work
# [2] = in vitro phage display; cited from earlier work; remark: listed apart in the source
# [3] = system: heart, liver, lung, spleen, kidney, skeletal muscle and brain; assay: In vivo tissue transduction by biotinylated peptides coupled to Streptavidin-Alexa488 (confocal microscopy); set-up: species or system Balb/c mice; settings: 10 mg/Kg i.v.; 30 minutes post-injection
# Experimental: In vivo imaging studies. The initial in vivo targeting studies were performed using CTP-6CF. Female Balb/C mice were injected retro-orbitally with CTP-6CF (25 mg/Kg) and euthanized 15 minutes later, Heart cross-sections were stained for actin using phalloidin Alexa-647 (Molecular Probes, A22287) and stained for laminin using a rabbit anti-laminin antibody followed by a goat anti-rabbit Cy3 (Jackson ImmunoResearch, 111-167-003) secondary antibody. Five non-overlapping sections were taken from each heart for quantification of green fluorescence (CTP-6CF) expressed as a percentage of total area (blue; stained for actin). A control peptide (CON; […]; SEQ ID NO:15), picked from the original, unselected M13 phage library, CTP and 8-Lysine (8K, a homopolymer of lysine), a known cationic protein transduction domain, were synthesized in a biotinylated form. 200 mM of biotinylated CTP, CON and 8K, or equivalent volume of PBS, were incubated with 10 ul of Streptavidin-Alexa488 (2 ng/ml; Molecular Probes, 532354) for 2 hours at room temperature. Female Balb/c mice were intravenously (retro-orbitally) injected with peptides at a dose of 10 mg/Kg and then euthanized 30 minutes post-injection. […] For confocal microscopy, laser intensities/gains were set using negative control (PBS injected) heart tissue to minimize background fluorescence. […]
# apoptosis in heart = assay: TUNEL staining of heart cross-sections in the murine infarct model; type: in vivo, Balb/c mice; settings: 8K-NBD study; 5 mg/Kg/injection i.p. post-op day 0, 1, 2; day 7
# Experimental: A cross-section from each heart was taken and apoptosis assessed by TUNEL staining. The nuclei were stained with Dapi, and the number of TUNEL positive nuclei expressed as a percentage of total nuclei in each field. The whole heart cross-section was taken into consideration by taking 5-6 contiguous, non-overlapping sections from each heart. […] FIG. 18 illustrates the TUNEL staining data in a quantitative manner.
# myocardial infarct = assay: Murine infarct model (left artery ligation); type: in vivo, Balb/c mice; settings: 8K-NBD study; 5 mg/Kg/injection i.p. post-op day 0, 1, 2; day 7; vs PBS
# Text: The following protocol was used and kept consistent from one set of experiments to another and between groups. Female, Balb/c, 10-20 week old mice were used for these set of studies. Female mice were chosen because of the ability to house 5/cage, as opposed to male mice (4/cage) and more importantly because female mice are able to tolerate cardiac insults better with lower post-operative mortality (19). Mice were anesthetized with intraperitoneal (i.p.) injection of 2.5% Avertin (a mixture of 15.5 ml tert-amyl alcohol to 25 grams of 2-2-2 Tribromoethanol-stock solution diluted to 2.5% concentration with PBS) at a dose of 15 μl/gm of body weight. Adequate anesthetic level was assessed by lack of response to toe-pinch and lack of a gag reflex. Mice were intubated, using direct visualization of the vocal chords, with a 22 G cannula and placed on a Harvard rodent ventilator apparatus. Tube placement was confirmed by symmetric expansion of the thoracic cavity. Mice were ventilated with ˜0.1 cc/breath tidal volume at a rate of 110 breaths/minute. […]
# Mice were euthanized on post-operative day 7. […] The three sections were H&E stained, light microscopy photographs taken, and area of infarct in each section mapped out using computer software Metamorph and expressed as a percent of the whole heart. […]
compound,measurement,setting,value
"O=C(O)c1ccc2c(c1)C1(OC2=O)c2ccc(O)cc2Oc2cc(O)ccc21 [6CF, 6-carboxyfluorescene]",uptake in human heart slices ex vivo (confocal microscopy),human heart tissue,occasional cells showing fluorescence
"Cc1cc(-c2ccc(/N=N/c3ccc4c(S(=O)(=O)[O-])cc(S(=O)(=O)[O-])c(N)c4c3O)c(C)c2)ccc1/N=N/c1ccc2c(S(=O)(=O)[O-])cc(S(=O)(=O)[O-])c(N)c2c1O.[Na+].[Na+].[Na+].[Na+] [EBD, Evans blue dye]",uptake in human heart slices ex vivo (confocal microscopy),human heart tissue,did not show any fluorescence
APWHLSSQYSRT [CTP],affinity for binding to two specific sulfated carbohydrates,[1],high affinity
same,"affinity for binding to apatite-based, bone-like minerals",[2],high affinity
"CON-SA488: biotinylated control peptide CON (ARPLEHGSDKAT) coupled to Streptavidin-Alexa488 (also: biotinylated, coupled to streptavidin-Alexa488)",uptake in any organ,[3],did not show appreciable uptake
KKKKKKKK-TTLDASALQME (KKKKKKKKTTLDASALQME) [8K-mutNBD],TUNEL positive (apoptotic) nuclei,apoptosis in heart,lesser number of apoptotic nuclei
same,heart-weight to body-weight ratio,myocardial infarct,did not differ
same,infarct size,myocardial infarct,worse
